Laboratory results from PubChem BioAssay (NCI).
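In this assay, cells in 96-well plates receive the compound at five concentrations for 48 hours. Endpoints are linearly interpolated between the surrounding concentrations. TGI: concentration producing complete growth inhibition.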

What was measured:
Experiment in all cases: growth of human tumour cells (NCI), 48 h
[1] = system: BT-549 breast
[2] = system: 786-0 renal
[3] = system: SK-OV-3 ovarian
[4] = system: HOP-92 NSCLC
[5] = system: ACHN renal
[6] = system: EKVX NSCLC
[7] = system: OVCAR-8 ovarian
[8] = system: MDA-MB-435
[9] = system: M14 melanoma
[10] = system: RPMI-8226 leukemia
[11] = system: UACC-257 melanoma
[12] = system: A549 NSCLC
[13] = system: UACC-62 melanoma
[14] = system: LOX IMVI melanoma
[15] = system: OVCAR-3 ovarian
[16] = system: NCI/ADR-RES ovarian
[17] = system: SR leukemia
[18] = system: SW-620 colon
[19] = system: MDA-MB-231 breast
[20] = system: SK-MEL-28 melanoma
[21] = system: PC-3 prostate
[22] = system: NCI-H23 lung
[23] = system: SN12C renal
[24] = system: MOLT-4 leukemia
[25] = system: HCT-15 colon
[26] = system: OVCAR-5 ovarian
[27] = system: COLO 205 colon
[28] = system: TK-10 renal
[29] = system: CCRF-CEM leukemia
[30] = system: SF-268 CNS
[31] = system: HL-60(TB) leukemia
[32] = system: SK-MEL-5 melanoma
[33] = system: NCI-H226 lung
[34] = system: SNB-19 CNS
[35] = system: HCC-2998 colon
[36] = system: NCI-H522 lung
[37] = system: KM12 colon
[38] = system: U251 CNS
[39] = system: SF-295 CNS
[40] = system: NCI-H460 lung
[41] = system: HS 578T breast
[42] = system: HCT-116 colon
[43] = system: SK-MEL-2 melanoma
[44] = system: UO-31 renal
[45] = system: OVCAR-4 ovarian
[46] = system: IGROV1 ovarian
[47] = system: MDA-N
[48] = system: HT29 colon
[49] = system: MCF7 breast
[50] = system: K-562 leukemia
[51] = system: CAKI-1 renal
[52] = system: A498 renal
[53] = system: MALME-3M melanoma
[54] = system: SF-539 CNS
[55] = system: DU-145 prostate
[56] = system: SNB-75 CNS
[57] = system: HOP-62 NSCLC
[58] = system: RXF 393 renal
[59] = system: T-47D breast

NS(=O)(=O)c1cc(S(N)(=O)=O)c(NC(=O)N(c2ccccc2)c2ccccc2)c(Cl)c1Cl
TGI [1]: 36.1 µM | TGI [2]: > 100 µM | TGI [3]: 65.3 µM | TGI [4]: 27 µM | TGI [5]: 76.5 µM | TGI [6]: 62.8 µM | TGI [7]: 34.2 µM | TGI [8]: 67.2 µM | TGI [9]: 51.4 µM | TGI [10]: 44.6 µM | TGI [11]: 27.6 µM | TGI [12]: > 100 µM | TGI [13]: 93.2 µM | TGI [14]: 25 µM | TGI [15]: 49.4 µM | TGI [16]: 54.4 µM | TGI [17]: 43.1 µM | TGI [18]: > 100 µM | TGI [19]: > 100 µM | TGI [20]: > 100 µM | TGI [21]: > 100 µM | TGI [22]: 58.2 µM | TGI [23]: 57.6 µM | TGI [24]: 42 µM | TGI [25]: > 100 µM | TGI [26]: > 100 µM | TGI [27]: 42.2 µM | TGI [28]: > 100 µM | TGI [29]: 25.7 µM | TGI [30]: > 100 µM | TGI [31]: 52 µM | TGI [32]: 33.1 µM | TGI [33]: 53.7 µM | TGI [34]: > 100 µM | TGI [35]: 35.3 µM | TGI [36]: 27.1 µM | TGI [37]: 57.1 µM | TGI [38]: > 100 µM | TGI [39]: 95.9 µM | TGI [40]: > 100 µM | TGI [41]: 44.9 µM | TGI [42]: > 100 µM | TGI [43]: 82.7 µM | TGI [44]: 94.1 µM | TGI [45]: > 100 µM | TGI [46]: 25.6 µM | TGI [47]: 88.5 µM | TGI [48]: 48.2 µM | TGI [49]: > 100 µM | TGI [50]: 81.4 µM | TGI [51]: 65.2 µM

CC(C)(C)c1c(C(C)(C)C)c(=O)c1=O
TGI [1]: > 100 µM | TGI [2]: > 100 µM | TGI [3]: > 100 µM | TGI [4]: > 100 µM | TGI [5]: > 100 µM | TGI [6]: > 100 µM | TGI [7]: > 100 µM | TGI [8]: > 100 µM | TGI [9]: > 100 µM | TGI [10]: > 100 µM | TGI [11]: > 100 µM | TGI [12]: > 100 µM | TGI [13]: > 100 µM | TGI [14]: > 100 µM | TGI [15]: > 100 µM | TGI [16]: > 100 µM | TGI [18]: > 100 µM | TGI [52]: > 100 µM | TGI [19]: > 100 µM | TGI [20]: > 100 µM | TGI [21]: > 100 µM | TGI [53]: > 100 µM | TGI [54]: > 100 µM | TGI [22]: > 100 µM | TGI [23]: > 100 µM | TGI [24]: > 100 µM | TGI [55]: > 100 µM | TGI [25]: > 100 µM | TGI [26]: > 100 µM | TGI [27]: > 100 µM | TGI [28]: > 100 µM | TGI [29]: > 100 µM | TGI [30]: > 100 µM | TGI [56]: > 100 µM | TGI [31]: > 100 µM | TGI [32]: > 100 µM | TGI [33]: > 100 µM | TGI [34]: > 100 µM | TGI [35]: > 100 µM | TGI [37]: > 100 µM | TGI [38]: > 100 µM | TGI [39]: > 100 µM | TGI [40]: > 100 µM | TGI [41]: > 100 µM | TGI [42]: > 100 µM | TGI [43]: > 100 µM | TGI [44]: > 100 µM | TGI [45]: > 100 µM | TGI [47]: > 100 µM | TGI [48]: > 100 µM | TGI [57]: > 100 µM | TGI [49]: > 100 µM | TGI [50]: > 100 µM | TGI [58]: > 100 µM | TGI [51]: > 100 µM

CC12CC(C/C1=N/O)C(C)(C)C2 (configuration not stated)
TGI [1]: > 100 µM | TGI [2]: > 100 µM | TGI [3]: > 100 µM | TGI [4]: > 100 µM | TGI [5]: > 100 µM | TGI [6]: > 100 µM | TGI [7]: > 100 µM | TGI [8]: > 100 µM | TGI [9]: > 100 µM | TGI [11]: > 100 µM | TGI [12]: > 100 µM | TGI [13]: > 100 µM | TGI [15]: > 100 µM | TGI [18]: > 100 µM | TGI [52]: > 100 µM | TGI [19]: > 100 µM | TGI [20]: > 100 µM | TGI [21]: > 100 µM | TGI [53]: > 100 µM | TGI [54]: > 100 µM | TGI [22]: > 100 µM | TGI [23]: > 100 µM | TGI [55]: > 100 µM | TGI [26]: > 100 µM | TGI [27]: > 100 µM | TGI [28]: > 100 µM | TGI [29]: > 100 µM | TGI [30]: > 100 µM | TGI [56]: > 100 µM | TGI [31]: > 100 µM | TGI [32]: > 100 µM | TGI [33]: > 100 µM | TGI [34]: > 100 µM | TGI [35]: > 100 µM | TGI [36]: > 100 µM | TGI [37]: > 100 µM | TGI [38]: > 100 µM | TGI [39]: > 100 µM | TGI [40]: > 100 µM | TGI [41]: > 100 µM | TGI [42]: > 100 µM | TGI [59]: > 100 µM | TGI [44]: > 100 µM | TGI [45]: > 100 µM | TGI [46]: > 100 µM | TGI [47]: > 100 µM | TGI [48]: > 100 µM | TGI [57]: > 100 µM | TGI [49]: > 100 µM | TGI [50]: > 100 µM | TGI [58]: > 100 µM | TGI [51]: > 100 µM

O=[N+]([O-])c1ccc(NS(=O)(=O)C(F)(F)F)cc1
TGI [1]: > 100 µM | TGI [2]: > 100 µM | TGI [3]: > 100 µM | TGI [4]: > 100 µM | TGI [5]: > 100 µM | TGI [6]: > 100 µM | TGI [7]: > 100 µM | TGI [8]: > 100 µM | TGI [9]: > 100 µM | TGI [11]: > 100 µM | TGI [12]: > 100 µM | TGI [13]: > 100 µM | TGI [14]: > 100 µM | TGI [15]: > 100 µM | TGI [16]: > 100 µM | TGI [18]: > 100 µM | TGI [52]: > 100 µM | TGI [19]: > 100 µM | TGI [20]: > 100 µM | TGI [21]: > 100 µM | TGI [54]: > 100 µM | TGI [22]: > 100 µM | TGI [23]: > 100 µM | TGI [24]: > 100 µM | TGI [55]: > 100 µM | TGI [25]: > 100 µM | TGI [26]: > 100 µM | TGI [27]: > 100 µM | TGI [28]: > 100 µM | TGI [29]: > 100 µM | TGI [30]: > 100 µM | TGI [56]: > 100 µM | TGI [31]: > 100 µM | TGI [32]: > 100 µM | TGI [33]: > 100 µM | TGI [34]: > 100 µM | TGI [36]: > 100 µM | TGI [37]: > 100 µM | TGI [38]: > 100 µM | TGI [39]: > 100 µM | TGI [40]: > 100 µM | TGI [41]: > 100 µM | TGI [42]: > 100 µM | TGI [59]: > 100 µM | TGI [43]: > 100 µM | TGI [44]: > 100 µM | TGI [45]: > 100 µM | TGI [46]: > 100 µM | TGI [47]: > 100 µM | TGI [48]: > 100 µM | TGI [57]: > 100 µM | TGI [49]: > 100 µM | TGI [58]: > 100 µM | TGI [51]: > 100 µM
